Measurements reported in patent publication US11608331B2 (priority 2021, dated 2023).
Where two headings read alike, the source gives them in different places.

Columns and labels:
[1] = target: SARS-CoV-2 Mpro (Severe acute respiratory syndrome coronavirus 2, UniProt P0DTD1); test: Main protease (Mpro) assay, 3CL Protease assay kit; format: biochemical
[2] = target: T1, human furin protease (Homo sapiens, UniProt P09958); test: Furin protease assay; format: biochemical
T1 construct: purchased BPS Bioscience 78040

[3] = test system: SARS-CoV-2 strain NRC-03-nhCoV; test: microbe, parasite or virus in culture; format: cell-based
[4] = target: SARS-CoV-2 PLpro (Severe acute respiratory syndrome coronavirus 2, UniProt P0DTD1); test: Papain-like protease (PLpro) assay; format: biochemical; details: for IC50: dose response curve, read-out: IC50 against SARS-CoV-2 PLpro
[5] = in vitro; details: human
[6] = read-out: IC50 against human furin protease

T1 sequence (P09958 108-794): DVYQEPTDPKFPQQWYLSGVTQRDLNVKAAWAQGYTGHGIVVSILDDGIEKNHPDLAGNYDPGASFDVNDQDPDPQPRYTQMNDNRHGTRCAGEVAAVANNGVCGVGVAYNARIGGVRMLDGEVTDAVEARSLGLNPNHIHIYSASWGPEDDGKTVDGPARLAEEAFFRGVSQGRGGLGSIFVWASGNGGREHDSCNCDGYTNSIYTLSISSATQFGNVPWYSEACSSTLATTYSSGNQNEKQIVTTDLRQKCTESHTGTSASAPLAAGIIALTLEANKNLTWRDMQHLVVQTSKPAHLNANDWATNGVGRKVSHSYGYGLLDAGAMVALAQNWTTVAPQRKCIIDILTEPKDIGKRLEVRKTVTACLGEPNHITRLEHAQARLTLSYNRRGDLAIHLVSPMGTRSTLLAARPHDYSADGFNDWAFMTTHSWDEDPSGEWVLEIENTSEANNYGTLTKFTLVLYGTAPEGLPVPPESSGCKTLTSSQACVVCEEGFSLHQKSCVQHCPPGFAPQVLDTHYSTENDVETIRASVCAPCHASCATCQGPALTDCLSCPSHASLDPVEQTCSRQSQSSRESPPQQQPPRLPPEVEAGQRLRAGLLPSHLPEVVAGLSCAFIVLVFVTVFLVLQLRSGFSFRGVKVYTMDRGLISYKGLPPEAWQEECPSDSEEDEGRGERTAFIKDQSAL

Row | Structure (SMILES) | IC50 ([1]; compound 13M, FIG. 10B-10C, read-out: IC50 against Mpro enzyme (converted)) [nM] | IC50 [2] [nM] | IC50 ([3]; Severe acute respiratory syndrome coronavirus 2, Vero C1008, compound 13M, FIG. 10A, read-out: antiviral activity in vitro IC50) [µg/mL] | IC50 [2, 6] [nM] | IC50 ([3]; Severe acute respiratory syndrome coronavirus 2, Vero C1008, Vero-E6 cells, strain NRC-03-nhCoV, 72 h, read-out: IC50 inhibition activity against SARS-CoV-2) [nM] | IC50 [4] [nM] | IC50 at 24 h [5] [nM] | inhibition at 100 µg/mL ([1]; read-out: inhibition activity against Mpro enzyme (inhibition percentage)) [%] | IC50 ([3]; Severe acute respiratory syndrome coronavirus 2, Vero C1008, 72 h, read-out: IC50 inhibition activity against SARS-CoV-2) [nM] | inhibition activity against SARS-CoV-2 PLpro ([4]; screening, mean±SEM of 3 replicas) [%] | IC50 [5] [nM]
1 | N=C(N/N=C/c1ccncc1)c1nonc1NCNc1nonc1C(=N)N/N=C/c1ccncc1 [Compound 13M] | 13400 | 86200 | ~8 |  |  |  |  |  |  |  | 
2 | N=C(N/N=C/c1ccccc1O)c1nonc1NCNc1nonc1C(=N)N/N=C/c1ccccc1O [Compound 13] |  |  |  | 290 | 110 | 63 | 410 |  |  |  | 
3 | COc1cc(C(NC2=NC(=O)C(CC(=O)Nc3ccc(C(=O)O)cc3)S2)c2c(O)[nH]c(=O)[nH]c2=O)ccc1O (stereo not shown) [Compound 7] |  |  |  | 290 |  | 85 |  | 31 ± 2 | 770 | 56.4 | 1670
